According to EP4740947A1, “PHARMACEUTICAL COMBINATION OF EGFR KINASE INHIBITOR AND C-MET KINASE INHIBITOR FOR TREATING TUMOR DISEASES” (Jiangsu AoSaiKang Pharmaceutical Co., Ltd., priority 2023, dated 2025):
Several values for one entry are separate records, joined by “and”; a condition that tells them apart may be missing. Equal entries are not always repeated.

Experiments:
[1] = tested on: LD1-0025-200662 human lung cancer tissue; experiment: Efficacy study in patient derived xenograft (PDX) tumor model established with LD1-0025-200662 human lung cancer tissue; assay type: in vivo, NU/NU mice; conditions: for Complete tumor regression (%): rate of mice, observed by naked eyes on day 21; for T/C% Day 21: relative tumor proliferation rate; for T/C (%) (tumor weight): tumor weight vs vehicle
Experimental: NU/NU mice were subcutaneously inoculated with human lung cancer tissue LD1-0025-200662 to establish an in-vivo xenograft tumor model, and then the efficacy of the test drugs ASK-MET alone, ASK-EGFR alone, ASK-MET+ASK-EGFR in combination and RefT+ ASK-EGFR in combination in the model were evaluated.
LD1-0025-200662 (see Table 8), a patient derived human lung cancer tissue, was sub-cultured to FP3+3 passages for this efficacy test. Table 8. Xenograft tumor model
NU/NU mice, female, age: 42-62 days, weight: 18-22 g, purchased from Zhejiang Vital River Laboratory Animal Technology Co., Ltd. (Production license: SCXK(Zhe)2019-0001).
• Vehicle: 20% solutol/80% 100 mM sodium acetate buffer pH 5.5; • ASK-MET: hydrochloride of the compound of Formula (II), prepared with 20% solutol/80% 100 mM sodium acetate buffer pH 5.5, concentration: 0.1 mg/mL, 0.3 mg/mL; • ASK-EGFR: compound of Formula (I), prepared with 0.5% sodium carboxymethyl cellulose solution (0.5%CMC-Na), concentration: 2 mg/mL; • RefT: prepared with 20% solutol/80% 100 mM sodium acetate buffer pH 5.5, concentration: 0.3 mg/mL; RefT is a small-molecule MET kinase inhibitor approved by USFDA.
(§1) Immunodeficient mice were subcutaneously inoculated with LD1-0025-200662 tumor tissue, and observed continuously till tumor formation. When the tumor volume reached about 1000 mm^3, the tumor tissue was peeled off and cut into tumor tissue with a size of about 3 mm × 3 mm × 3 mm (about 50-90 mg), and inoculated subcutaneously in NU/NU mice. The inoculated mice were observed and the growth of tumor was monitored. When the average tumor volume of tumor-bearing mice reached 193.40 mm^3, the mice were randomly divided into groups, administered and observed. The tumor volume and weight of all tumor-bearing mice were measured before grouping, and the tumor-bearing mice were randomly grouped according to the measured tumor volume. According to the principle of random block design, the mice were first divided into blocks according to the tumor volume, and then the mice in each block were randomly assigned to each treatment group. Table 9. Administration and treatment
5.1 Measurement of tumor volume and weight of tumor-bearing mice: The measurement was made twice a week by using a vernier caliper, and the tumor volume was calculated by a formula V = 0.5 × a × b^2, where a and b were respectively the major and minor diameters of the tumor.
5.2 Tumor growth inhibition TGI (%)= [1-(Ti-T0) / (Vi-V0)] × 100, where Ti-T0>0; TGI (%) = [1-(Ti-T0)/ T0] × 100, where Ti-T0<0. T0 was the average tumor volume at the first administration in the treatment group, Ti was the average tumor volume at a certain measurement after administration in the treatment group, V0 was the average tumor volume at the first administration in the vehicle control group, and Vi was the average tumor volume at a certain measurement after administration in the vehicle control group.
5.3 Relative tumor proliferation rate T/C (%): The calculation formula is as follows: T/C % = TRTV / CRTV × 100 % (TRTV: RTV of the treatment group; CRTV: RTV of the negative control group). According to the results of tumor measurement, the relative tumor volume (RTV) was calculated by a formula RTV = Vt / V0, where V0 was the average tumor volume measured at the time of grouping for administration (that is, d0), Vt was the average tumor volume measured at a certain measurement, and TRTV and CRTV data of the same day was used.
5.4 Synergistic effect in combined treatment group: Jin's formula Q=E(a+b)/[Ea+Eb-Ea × Eb], where Ea was TGI of a drug alone, and Q value>1 reflected that drug combination has a synergistic effect.
5.5 After the experiment, the tumor was stripped, weighed and photographed. T/Cweight%= Tweight /Vweight × 100%, where Tweight was the average tumor weight of the compound group at the end of the experiment, and Vweight was the average tumor weight of the vehicle control group at the end of the experiment.
All data is expressed as Mean±SEM. […]

[2] = Body weight change and tolerance of tumor-bearing mice in the LD1-0025-200662 PDX model; assay type: in vivo; conditions: for Rate of weight change (%) Day 21: Day 21 vs Day 0
Experimental: as §1
During the whole experiment, the use and observation of test animals were carried out in accordance with the relevant regulations of Guide for the Care and Use of Laboratory Animals of AAALAC. After the test animals were inoculated with the tumor tissue, they were observed every day and the disease attack and death were recorded. During the routine experiment, all the test animals were monitored and recorded for behavior, food intake, water intake, weight change, hair luster and other abnormal conditions.
5.6 The weight of tumor-bearing mice was measured twice a week, and the change rate of weight gain of mice after administration was calculated: RCBW(%) = (BWi - BW0) / BW0 × 100, where BWi was the average weight at a certain measurement after administration, and BW0 was the average weight at the first administration.

[3] = ASK-MET 1 mg/kg p.o. QD×(D0-D7) (G3)
[4] = ASK-MET 3 mg/kg p.o. QD×(D0-D7) (G4)
[5] = Day 21, ASK-MET 1 mg/kg p.o. QD×(D0-D7) (G3)
[6] = Day 21, ASK-MET 3 mg/kg p.o. QD×(D0-D7) (G4)
[7] = ASK-EGFR 20 mg/kg p.o. QD×21 (G2)
[8] = Day 21, ASK-EGFR 20 mg/kg p.o. QD×21 (G2)

CC(C)(O)CN1CCC(COc2cnc(-c3cccc(Cn4c(=O)ccn5c6cc(C#N)ccc6nc45)c3)nc2)CC1 [ASK-MET]
complete tumor regression of tumor-bearing mice (in words) ([1]; ASK-MET 1 mg/kg (G3)): varying degrees of complete tumor regression | inhibition on the growth of subcutaneous xenograft tumor ([1]; ASK-MET 1 mg/kg (G3)): statistically significant inhibition | complete tumor regression of tumor-bearing mice (in words) ([1]; ASK-MET 3 mg/kg (G4)): varying degrees of complete tumor regression | inhibition on the growth of subcutaneous xenograft tumor ([1]; ASK-MET 3 mg/kg (G4)): statistically significant inhibition | Tumor volume (mm^3) (Mean ± SEM) Day 0 [1, 3]: 168.78±15.38 mm^3 | Tumor volume (mm^3) (Mean ± SEM) Day 0 [1, 4]: 170.65±12.40 mm^3 | Tumor volume (mm^3) (Mean ± SEM) Day 21 [1, 5]: 116.01±35.11 mm^3 | Tumor weight (g) (Mean ± SEM) Day 21 after treatment [1, 5]: 0.12 ± 0.04 g | TGI% Day 21 ([1]; Day 21, ASK-MET 1 mg/kg p.o. QD×(D0-D7) (G3), above 100 = regression by formula of b100): 131.27% | Tumor volume (mm^3) (Mean ± SEM) Day 21 [1, 6]: 3.54±2.35 mm^3 | Tumor weight (g) (Mean ± SEM) Day 21 after treatment [1, 6]: 0.01 ± 0.00 g | TGI% Day 21 ([1]; Day 21, ASK-MET 3 mg/kg p.o. QD×(D0-D7) (G4), above 100 = regression by formula of b100): 197.93% | Complete tumor regression (%) [1, 3]: 12.5% and 12.5 (1/8) % | Complete tumor regression (%) [1, 4]: 75% and 75 (6/8) % | T/C% Day 21 [1, 5]: 9.27% | T/C% Day 21 [1, 6]: 0.28% | T/C (%) (tumor weight) [1, 5]: 9.18% | T/C (%) (tumor weight) [1, 6]: 0.39% | Average weight (g) (Mean ± SEM) Day 0 [2, 3]: 24.08 ± 0.53 g | Average weight (g) (Mean ± SEM) Day 0 [2, 4]: 24.02 ± 0.37 g | Average weight (g) (Mean ± SEM) Day 21 [2, 3]: 25.24 ± 0.50 g | Average weight (g) (Mean ± SEM) Day 21 [2, 4]: 25.03 ± 0.45 g | Rate of weight change (%) Day 21 [2, 3]: 4.88±0.71% | Rate of weight change (%) Day 21 [2, 4]: 4.19±1.08%

C=CC(=O)Nc1cc(Nc2ncc(Cl)c(Nc3ccc4ccccc4c3)n2)c(OC)cc1N(C)CCN(C)C [ASK-EGFR, N-((5-((5-chloro-4-((naphthalen-2-yl)amino))pyrimidin-2-yl)amino)-2-((N-methyl-N-dimethylaminoethyl)amino)-4-methoxyphenyl) acrylamide]
Tumor volume (mm^3) (Mean ± SEM) Day 0 [1, 7]: 169.31±14.43 mm^3 | Tumor volume (mm^3) (Mean ± SEM) Day 21 [1, 8]: 1239.58±146.6 mm^3 | Tumor weight (g) (Mean ± SEM) Day 21 after treatment [1, 8]: 1.19 ± 0.16 g | TGI% Day 21 ([1]; Day 21 vs vehicle, ASK-EGFR 20 mg/kg p.o. QD×21 (G2)): 1.96% | Complete tumor regression (%) [1, 7]: 0.00% and 0 (0/8) % | T/C% Day 21 [1, 8]: 98.77% | T/C (%) (tumor weight) [1, 8]: 93.41% | Average weight (g) (Mean ± SEM) Day 0 [2, 7]: 23.24 ± 0.47 g | Average weight (g) (Mean ± SEM) Day 21 [2, 7]: 24.75 ± 0.64 g | Rate of weight change (%) Day 21 [2, 7]: 6.45±1.28%
